Source: EP2229935A1, “Peptide derivatives or pharmaceutically acceptable salts thereof, method for producing the same, use of said derivatives and pharmaceutical composition” (Nebolsin, Vladimir Evgenievich, priority 1997, dated 1999)
Marks after values point to notes of the source that are not given here.

Experiments:
[1] = tested on: Lewis pulmonary carcinoma (LLC); assay: Lewis pulmonary carcinoma spontaneous metastasizing, oral administration; assay type: in vivo; conditions: BDF1 female mice with LLC, oral 24 days; for Mean number of metastases: day 25
Method: Each group included 15 animals. 0.3 ml of LLC tumor tissue suspension was intramuscularly injected to mice. Henks solution was used as a solvent. […] Moscow (1992) 13 pp.]. […]

hydroxyl radical = assay: Hydroxyl radical formation in the Fenton reagent (chemiluminescence); assay type: biochemical
Method: Active oxygen forms (AOF) of different nature were generated in the following systems: • A. Hydroxyl radical - in the mixture of FeSO4 with H2O2 (the Fenton reagent) [Halliwell B. Superoxide-dependent formation of hydroxyl radicals in the presence of iron salts. […] Incubation medium comprised 5 mM KH2PO4 (pH 7.4); 5 mM FeSO4; 2 mM luminol. H2O2 at final concentration 5 mM was introduced into a cuvette through a dispencer following background luminescence recording of the reagents' mixture. 5 to 10 ml of the test compounds dissolved in water were at needed concentration introduced into a cuvette.
CL flash recording duration after mixing ingredients, depended on a particular process kinetics. For each system, CL light sum (mV) was determined in the control samples without preparations (I-) and in samples comprising respective concentrations of preparations (I+). To estimate CL inhibition (activation) degree, the I+/I- ratio (in relative units) was found in the studied systems.
When H2O2 was introduced into phosphate buffer comprising iron sulfate, CL flash occured which was caused by formation of predominantly hydroxyl radical in the reaction mixture.

mongrel female rats = assay: Hepatoprotective activity: subchronic liver lesion (hepatitis) with CCl4; assay type: in vivo; conditions: for Cholesterol level, mg/100 ml VLDL-CS / Cholesterol level, mg/100 ml LDL-CS / Cholesterol level, mg/100 ml HDL-CS / Cholesterol level, mg/100 ml total-CS / TG level, mg/100ml / ALT, nM/dl / AST, nM/dl: blood serum; for Cholesterol level, mg/100 ml VLDL-CS: TG/5; for Cholesterol level, mg/100 ml LDL-CS: calculated by formula; for ALT, nM/dl / AST, nM/dl: oral 8 days
Method: Hepatoprotective properties of the compounds were studied on a model of subchronic liver lesion (hepatitis) with carbon quadrichloride.
70 mongrel female rats with initial body mass 190-200 g fed a standard vivarium ration, were used in experiment. Animals were divided into 7 groups (10 rats each): • Group 1 - control one; during the first four days of experiment animals were subcutaneously injected 0.2 ml vaseline oil; • Group 2 - during the first four days animals were subcutaneously injected 50% CCl4 solution in vaseline oil at a rate of 0.1 ml per 100 g body mass; • Group 3 - Legalon in a starch gel was administered orally for 8 days at a dose 30 mg/kg against the background of CCl4 administration; […] , resepectively, was administered in a way similar to group III; […] , resepectively, was administered in a way similar to group III.
The test compounds and Legalon were administered to animals 1 hour prior to CCl4 administration. 24 hours after the last administration of the drugs, animals were decapitated.
Activity of blood serum transaminases ALT and AST was assessed using the conventional Frenkel-Rightman method [Laboratory examination methods in the clinic. Ed. by Menshikov V.V. Moscow, Meditsina publishers (1969), 302 pp.].
The published method [Rodionova L.P. Modification of blood serum trigyceride level determination method. Laboratomoye delo (Laboratory Matter) (1980), No 5, pp. 297-299] was used to determine blood serum TG level.
Blood serum LP final product MDA was determined using the published method [Korobeinikova E.N. Modification of lipid peroxydation product determination in reaction with thiobarbituric acid. Laboratomoye delo (Laboratory Matter) (1989), No 7, pp. 8-10]. Concentration of TBA-active products was calculated using regression equation: C = 0.21 + 0.26D, [formula] where C - concentration of TBA-active products (in nM MDA per 1 ml of serum), D - index D535 -D580 (in optic density units).
Total hepatic lipids were extracted using the modified Folch method [Cates M. Technology of Lipidology. Moscow, Mir publishers (1975), pp. 74-76]. Quantative content of lipid fractions was assessed with thin layer chromatography method (TLC) using the system of solvents hexane:diethyl ether:acetic acid at ratio 80:20:2. Zones of individual lipid fractions were determined using 10% alcohol solution of phosphoromolyobdenic acid which following elution were spectrophotometrically analysed at 600 nm.
Hepatic MDA level was determined using the published method [Stalnaya I.D., Garishvili T.G. Malonic dialdehyde determination method using thiobarbituric acid. In: Modem methods in biochemistry. Moscow, Meditsina publishers (1977), pp. 66-69]. MDA quantity was calculated using molar extinction coefficient value of stained trimethynic complex formed by MDA with two TBA molecules: E = 1.56 × 10^5 (cm)^-1 × M^-1 [formula]

γ-interferon = γ-interferon production by splenocytes after stress; assay type: in vivo, Balb male mice; conditions: 50 µg/kg orally
Method: Experiments were carried out on inbred Balb male mice with initial body mass 16-18 g. Each group included 12 animals. The model of swimming in warm water for 20 minutes was used to develop emotional-locomotory stress in animals. Stress development was estimated by the activity of natural killer lymphocytes (NK cells) and by functioning of the interferon system [Sukhikh T.G., Nossik N.N., Parshina O.V., Van'ko L.V., Meerson F.Z., Yershov F.I. Relationship between the natural cellular cytotoxicity system and the interferon system in immobilization stress. Bulletin of Experimental Biology (1984), ? , pp.593-595].
In studying interferon reaction of mouse splenocytes spleen cells were placed into incubation medium (the RPMI-1640 medium + 10% fetal calf serum), their concentration was brought to 1-3 x 10^8 cells/ml and they were incubated at 37°C for 24 hours. Newcasle disease virus (α-interferon induction) and FGA mitogen (γ-interferon induction) were used as intereferon inducers [Nossik N.N., Bopegamage S.A., Yershov F.I. Properties of interferons produced by different cell populations. Acta microbiologica Hungarica (1988), Vol. 35, Iss. 4, pp. 397-403].
Animals were divided into four groups, each including 36 mice. • Group 1 - intact animals not subjected to stress and given normal saline (NS). • Group 2 - animals which ere subjected to stress effect and given NS. • Group 3 - animals which were subjected to stress effect and administered compound III. • Group 4 - animals which were subjected to stress effect and administered compound XLIV.
Activity of NK-cells and interferon state were dynamically determined in 4 hours following stress, in 24 hours and then by days 5, 7 and 10.

[2] = 1 µM, control of the series as in the table
[3] = 0.01 mM, control of the series as in the table
[4] = 0.1 mM, control of the series as in the table
[5] = 1 mM, control of the series 7839 ± 171, 1120 ± 163, 4974 ± 283 or 1332 ± 172
[6] = rats, CCl4 hepatitis, 0.05 µg/kg
[7] = rats, CCl4 hepatitis, 0.5 µg/kg
[8] = rats, CCl4 hepatitis, daily dose 0.05 mg/kg
[9] = rats, CCl4 hepatitis, daily dose 0.50 mg/kg
[10] = rats, CCl4 hepatitis, 0.05 mg/kg
[11] = rats, CCl4 hepatitis, 0.50 mg/kg
[12] = rats, CCl4 hepatitis, liver, 0.05 µg/kg
[13] = rats, CCl4 hepatitis, liver, 0.5 µg/kg

O=C(O)CCCC(=O)NCCc1c[nH]cn1 [compound III, N-GLUTARYLHISTAMINE]
Mean number of metastases ([1]; 50 µg/kg): 38.5 ±6.3**^1
Mean number of metastases ([1]; 500 µg/kg): 30.1 ± 2.7**^1
Metastasizing inhibition percent ([1]; 50 µg/kg): 26.0%
Metastasizing inhibition percent ([1]; 500 µg/kg): 42.0%
relative effect: I+/I- (hydroxyl radical; 1 µM): 0.98
Chemiluminiscence intensity (mV) + σn-1 (hydroxyl radical; [2]): 1100 ± 84 mV
relative effect: I+/I- (hydroxyl radical; 0.01 mM): 0.87
Chemiluminiscence intensity (mV) + σn-1 (hydroxyl radical; [3]): 972 ± 79 mV
relative effect: I+/I- (hydroxyl radical; 0.1 mM): 0.64
Chemiluminiscence intensity (mV) + σn-1 (hydroxyl radical; [4]): 719 ± 71 mV
relative effect: I+/I- (hydroxyl radical; 1 mM): 0.15
Chemiluminiscence intensity (mV) + σn-1 (hydroxyl radical; [5]): 164 ± 14 mV
Lipid composition (in percent of total lipids) FCS (mongrel female rats; 5e-05 mg/kg): 20.3 ± 0.8 p<0.05% of total lipids
Lipid composition (in percent of total lipids) Phospholipids (mongrel female rats; 5e-05 mg/kg): 24.4 ± 0.7 p<0.05% of total lipids
Lipid composition (in percent of total lipids) Triglycerides (mongrel female rats; 5e-05 mg/kg): 35.5 ±1.1% of total lipids
Lipid composition (in percent of total lipids) FCS (mongrel female rats; 0.0005 mg/kg): 18.9 ± 0.7% of total lipids
Lipid composition (in percent of total lipids) Phospholipids (mongrel female rats; 0.0005 mg/kg): 23.8 ± 1.0 p<0.05% of total lipids
Lipid composition (in percent of total lipids) Triglycerides (mongrel female rats; 0.0005 mg/kg): 35.3 ± 0.7% of total lipids
Cholesterol level, mg/100 ml VLDL-CS (mongrel female rats; [6]): 17.7 ± 2.0 mg/100 ml
Cholesterol level, mg/100 ml VLDL-CS (mongrel female rats; [7]): 15.8 ± 1.0 p<0.05 mg/100 ml
Cholesterol level, mg/100 ml LDL-CS (mongrel female rats; [6]): 19.6 ± 1.4 p<0.01 mg/100 ml
Cholesterol level, mg/100 ml LDL-CS (mongrel female rats; [7]): 12.0 ± 0.6 mg/100 ml
Cholesterol level, mg/100 ml HDL-CS (mongrel female rats; [6]): 52.3 ± 2.9 mg/100 ml
Cholesterol level, mg/100 ml total-CS (mongrel female rats; [6]): 89.5 ± 3.8 mg/100 ml
TG level, mg/100ml (mongrel female rats; [6]): 88.0 ± 10.2 mg/100ml
Cholesterol level, mg/100 ml HDL-CS (mongrel female rats; [7]): 59.3 ± 2.6 mg/100 ml
Cholesterol level, mg/100 ml total-CS (mongrel female rats; [7]): 87.0 ± 2.6 mg/100 ml
TG level, mg/100ml (mongrel female rats; [7]): 78.6 ± 5.4 p<0.05 mg/100ml
ALT, nM/dl (mongrel female rats; [8]): 624 ± 31 nM/dl
AST, nM/dl (mongrel female rats; [8]): 478 ± 26 nM/dl
ALT, nM/dl (mongrel female rats; [9]): 609 ± 42 nM/dl
AST, nM/dl (mongrel female rats; [9]): 522 ± 33 nM/dl
Hepatic MDA, nM/l (mongrel female rats; [10]): 5.00 ± 0.15 p<0.05 nM/l
Serum MDA, nM/l (mongrel female rats; [10]): 5.86 ± 0.70 nM/l
Hepatic MDA, nM/l (mongrel female rats; [11]): 4.60 ± 0.52 p<0.05 nM/l
Serum MDA, nM/l (mongrel female rats; [11]): 5.77 ± 0.15 p<0.05 nM/l
γ-interferon, U/ml (γ-interferon; 0 days after stress): 80 U/ml
γ-interferon, U/ml (γ-interferon; 0.16 days after stress): 80 U/ml
γ-interferon, U/ml (γ-interferon; 1 day after stress): 32 U/ml
γ-interferon, U/ml (γ-interferon; 5 days after stress): 32 U/ml
γ-interferon, U/ml (γ-interferon; 7 days after stress): 320 U/ml
γ-interferon, U/ml (γ-interferon; 10 days after stress): 80 U/ml

γ-L-glutamylhistamine [compound XLIV]
Mean number of metastases ([1]; 50 µg/kg): 42.4 ± 4.5
Mean number of metastases ([1]; 500 µg/kg): 31.9 ± 3.8*^2
Metastasizing inhibition percent ([1]; 50 µg/kg): 10.0%
Metastasizing inhibition percent ([1]; 500 µg/kg): 32.0%
relative effect: I+/I- (hydroxyl radical; 1 µM): 1.0
Chemiluminiscence intensity (mV) + σn-1 (hydroxyl radical; [2]): 7747 ± 259 mV
relative effect: I+/I- (hydroxyl radical; 0.01 mM): 0.83
Chemiluminiscence intensity (mV) + σn-1 (hydroxyl radical; [3]): 6444 ± 267 mV
relative effect: I+/I- (hydroxyl radical; 0.1 mM): 0.59
Chemiluminiscence intensity (mV) + σn-1 (hydroxyl radical; [4]): 4625 ± 393 mV
relative effect: I+/I- (hydroxyl radical; 1 mM): 0.28 (*)
Chemiluminiscence intensity (mV) + σn-1 (hydroxyl radical; [5]): 2197 ± 311 mV
Cholesterol level, mg/100 ml VLDL-CS (mongrel female rats; [6]): 13.9 ± 1.1 p<0.01 mg/100 ml
Cholesterol level, mg/100 ml VLDL-CS (mongrel female rats; [7]): 12.4 ± 0.7 p<0.001 mg/100 ml
Cholesterol level, mg/100 ml LDL-CS (mongrel female rats; [6]): 21.9 ± 1.1 p<0.001 mg/100 ml
Cholesterol level, mg/100 ml LDL-CS (mongrel female rats; [7]): 17.1 ± 1.0 p<0.01 mg/100 ml
Cholesterol level, mg/100 ml HDL-CS (mongrel female rats; [6]): 49.6 ± 2.5 mg/100 ml
Cholesterol level, mg/100 ml total-CS (mongrel female rats; [6]): 85.3 ± 3.9 mg/100 ml
TG level, mg/100ml (mongrel female rats; [6]): 68.3 ± 5.7 p<0.001 mg/100ml
Cholesterol level, mg/100 ml HDL-CS (mongrel female rats; [7]): 57.5 ± 5.1 mg/100 ml
Cholesterol level, mg/100 ml total-CS (mongrel female rats; [7]): 87.2 ± 6.5 mg/100 ml
TG level, mg/100ml (mongrel female rats; [7]): 62.4 ± 3.9 p<0.001 mg/100ml
ALT, nM/dl (mongrel female rats; [8]): 599 ± 18 nM/dl
AST, nM/dl (mongrel female rats; [8]): 470 ± 17 nM/dl
ALT, nM/dl (mongrel female rats; [9]): 551 ± 28 nM/dl
AST, nM/dl (mongrel female rats; [9]): 475 ± 19 nM/dl
Lipid composition (in percent of total lipids) FCS (mongrel female rats; [12]): 18.0 ± 0.8% of total lipids
Lipid composition (in percent of total lipids) Phospholipids (mongrel female rats; [12]): 22.8 ± 0.9% of total lipids
Lipid composition (in percent of total lipids) Triglycerides (mongrel female rats; [12]): 39.9 ± 1.7% of total lipids
Lipid composition (in percent of total lipids) FCS (mongrel female rats; [13]): 20.6 ± 0.8 p<0.05% of total lipids
Lipid composition (in percent of total lipids) Phospholipids (mongrel female rats; [13]): 26.1 ± 0.6 p<0.001% of total lipids
Lipid composition (in percent of total lipids) Triglycerides (mongrel female rats; [13]): 33.9 ± 1.0 p<0.05% of total lipids
Hepatic MDA, nM/l (mongrel female rats; [10]): 4.47 ± 0.45 p<0.05 nM/l
Serum MDA, nM/l (mongrel female rats; [10]): 5.82 ± 0.38 p<0.05 nM/l
Hepatic MDA, nM/l (mongrel female rats; [11]): 3.51 ± 0.30 p<0.001 nM/l
Serum MDA, nM/l (mongrel female rats; [11]): 4.72 ± 0.57 p<0.01 nM/l
γ-interferon, U/ml (γ-interferon; 0 days after stress): 80 U/ml
γ-interferon, U/ml (γ-interferon; 0.16 days after stress): 20 U/ml
γ-interferon, U/ml (γ-interferon; 1 day after stress): 320 U/ml
γ-interferon, U/ml (γ-interferon; 5 days after stress): 40 U/ml
γ-interferon, U/ml (γ-interferon; 7 days after stress): 32 U/ml
γ-interferon, U/ml (γ-interferon; 10 days after stress): 32 U/ml
